Assay: xn = mol fraction of the nth substance listed
Details: 101 kPa, Liquid

CCCCCCO [hexan-1-ol] + CCCCCCCC
Details | kinematic viscosity [m2/s] | mass density [kg/m3]
293.15 K, x2 = 0 | 6.61e-06 | 818.84
293.15 K, x2 = 0.0618 | 5.49e-06 | 809.74
293.15 K, x2 = 0.086 | – | 806.25
293.15 K, x2 = 0.1114 | 4.74e-06 | 802.62
293.15 K, x2 = 0.1597 | – | 795.86
293.15 K, x2 = 0.1891 | – | 791.83
293.15 K, x2 = 0.1928 | 3.74e-06 | 791.32
293.15 K, x2 = 0.2346 | – | 785.68
293.15 K, x2 = 0.3022 | 2.75e-06 | 776.82
293.15 K, x2 = 0.4039 | 2.08e-06 | 764.07
293.15 K, x2 = 0.495 | 1.67e-06 | 753.22
293.15 K, x2 = 0.4994 | – | 752.71
293.15 K, x2 = 0.6088 | 1.31e-06 | 740.42
293.15 K, x2 = 0.715 | 1.08e-06 | 729.21
293.15 K, x2 = 0.7991 | – | 720.79
293.15 K, x2 = 0.8086 | 9.47e-07 | 719.86
293.15 K, x2 = 0.8381 | – | 717.02
293.15 K, x2 = 0.8767 | – | 713.37
293.15 K, x2 = 0.9078 | 8.43e-07 | 710.5
293.15 K, x2 = 0.9272 | – | 708.75
293.15 K, x2 = 0.9458 | 8.03e-07 | 707.09
303.15 K, x2 = 0 | 4.88e-06 | 811.56
303.15 K, x2 = 0.0233 | – | 808.05
303.15 K, x2 = 0.051 | – | 803.93
303.15 K, x2 = 0.086 | 3.85e-06 | 798.81
303.15 K, x2 = 0.1189 | – | 794.07
303.15 K, x2 = 0.1308 | 3.41e-06 | 792.38
303.15 K, x2 = 0.1581 | – | 788.53
303.15 K, x2 = 0.188 | 2.94e-06 | 784.37
303.15 K, x2 = 0.1922 | – | 783.8
303.15 K, x2 = 0.2352 | – | 777.94
303.15 K, x2 = 0.2632 | – | 774.2
303.15 K, x2 = 0.308 | 2.15e-06 | 768.33
303.15 K, x2 = 0.369 | – | 760.56
303.15 K, x2 = 0.3936 | 1.75e-06 | 757.47
303.15 K, x2 = 0.4152 | – | 754.82
303.15 K, x2 = 0.4508 | – | 750.49
303.15 K, x2 = 0.4994 | 1.38e-06 | 744.75
303.15 K, x2 = 0.5249 | – | 741.79
303.15 K, x2 = 0.578 | – | 735.78
303.15 K, x2 = 0.5852 | 1.17e-06 | 734.98
303.15 K, x2 = 0.6255 | – | 730.55
303.15 K, x2 = 0.7026 | 9.66e-07 | 722.36
303.15 K, x2 = 0.7143 | – | 721.15
303.15 K, x2 = 0.774 | – | 715.1
303.15 K, x2 = 0.7909 | – | 713.42
303.15 K, x2 = 0.8042 | 8.42e-07 | 712.11
303.15 K, x2 = 0.8532 | – | 707.39
303.15 K, x2 = 0.8767 | 7.73e-07 | 705.17
303.15 K, x2 = 0.9009 | – | 702.91
303.15 K, x2 = 0.9272 | 7.36e-07 | 700.52
303.15 K, x2 = 0.947 | – | 698.76
313.15 K, x2 = 0 | 3.69e-06 | 804.28
313.15 K, x2 = 0.0229 | – | 800.79
313.15 K, x2 = 0.0502 | – | 796.68
313.15 K, x2 = 0.0646 | 3.13e-06 | 794.53
313.15 K, x2 = 0.0825 | – | 791.88
313.15 K, x2 = 0.1067 | 2.81e-06 | 788.35
313.15 K, x2 = 0.1205 | – | 786.35
313.15 K, x2 = 0.1569 | – | 781.14
313.15 K, x2 = 0.2007 | 2.24e-06 | 774.99
313.15 K, x2 = 0.2441 | – | 769.04
313.15 K, x2 = 0.2976 | 1.78e-06 | 761.89
313.15 K, x2 = 0.3132 | – | 759.85
313.15 K, x2 = 0.3441 | – | 755.84
313.15 K, x2 = 0.3882 | 1.46e-06 | 750.23
313.15 K, x2 = 0.3938 | – | 749.53
313.15 K, x2 = 0.4703 | – | 740.16
313.15 K, x2 = 0.4916 | 1.18e-06 | 737.63
313.15 K, x2 = 0.4949 | – | 737.24
313.15 K, x2 = 0.5873 | 1e-06 | 726.62
313.15 K, x2 = 0.6023 | – | 724.95
313.15 K, x2 = 0.6746 | – | 717.11
313.15 K, x2 = 0.6964 | – | 714.81
313.15 K, x2 = 0.7108 | 8.36e-07 | 713.3
313.15 K, x2 = 0.757 | – | 708.56
313.15 K, x2 = 0.7619 | – | 708.06
313.15 K, x2 = 0.7893 | 7.56e-07 | 705.32
313.15 K, x2 = 0.8428 | – | 700.08
313.15 K, x2 = 0.8748 | – | 697.03
313.15 K, x2 = 0.9109 | 6.67e-07 | 693.67
313.15 K, x2 = 0.9297 | – | 691.97
313.15 K, x2 = 0.9599 | 6.41e-07 | 689.33

CCCCC(=O)OC [methyl pentanoate] + CCCCCCO
Capillary tube (Ostwald / Ubbelohde) method
Details | kinematic viscosity [m2/s]
293.15 K, x1 = 0.085 | 4.728e-06
293.15 K, x1 = 0.1145 | 4.25e-06
293.15 K, x1 = 0.1854 | 3.367e-06
293.15 K, x1 = 0.2862 | 2.527e-06
293.15 K, x1 = 0.4123 | 1.87e-06
293.15 K, x1 = 0.5087 | 1.533e-06
293.15 K, x1 = 0.6157 | 1.256e-06
293.15 K, x1 = 0.6835 | 1.129e-06
293.15 K, x1 = 0.7846 | 9.82e-07
293.15 K, x1 = 0.9071 | 8.57e-07
293.15 K, x1 = 0.9274 | 8.42e-07
293.15 K, x1 = 1 | 8e-07
303.15 K, x1 = 0.0771 | 3.701e-06
303.15 K, x1 = 0.1183 | 3.251e-06
303.15 K, x1 = 0.192 | 2.619e-06
303.15 K, x1 = 0.2983 | 1.994e-06
303.15 K, x1 = 0.4502 | 1.436e-06
303.15 K, x1 = 0.4593 | 1.412e-06
303.15 K, x1 = 0.5089 | 1.285e-06
303.15 K, x1 = 0.613 | 1.085e-06
303.15 K, x1 = 0.691 | 9.67e-07
303.15 K, x1 = 0.7873 | 8.55e-07
303.15 K, x1 = 0.8796 | 7.75e-07
303.15 K, x1 = 0.9346 | 7.39e-07
303.15 K, x1 = 1 | 7.08e-07
313.15 K, x1 = 0.0802 | 2.858e-06
313.15 K, x1 = 0.1168 | 2.58e-06
313.15 K, x1 = 0.1965 | 2.082e-06
313.15 K, x1 = 0.2939 | 1.644e-06
313.15 K, x1 = 0.3995 | 1.321e-06
313.15 K, x1 = 0.5141 | 1.083e-06
313.15 K, x1 = 0.548 | 1.028e-06
313.15 K, x1 = 0.5971 | 9.61e-07
313.15 K, x1 = 0.6912 | 8.44e-07
313.15 K, x1 = 0.7876 | 7.52e-07
313.15 K, x1 = 0.9035 | 6.75e-07
313.15 K, x1 = 0.9358 | 6.58e-07
313.15 K, x1 = 1 | 6.34e-07

Details | mass density [kg/m3]
293.15 K, x1 = 0.085 | 824.62
293.15 K, x1 = 0.1145 | 826.65
293.15 K, x1 = 0.1854 | 831.55
293.15 K, x1 = 0.2862 | 838.56
293.15 K, x1 = 0.4123 | 847.4
293.15 K, x1 = 0.5087 | 854.22
293.15 K, x1 = 0.6157 | 861.84
293.15 K, x1 = 0.6835 | 866.67
293.15 K, x1 = 0.7846 | 873.96
293.15 K, x1 = 0.9071 | 882.86
293.15 K, x1 = 0.9274 | 884.35
293.15 K, x1 = 1 | 889.75
303.15 K, x1 = 0.0771 | 816.54
303.15 K, x1 = 0.1183 | 819.23
303.15 K, x1 = 0.192 | 824.09
303.15 K, x1 = 0.2983 | 831.16
303.15 K, x1 = 0.4502 | 841.37
303.15 K, x1 = 0.4593 | 841.99
303.15 K, x1 = 0.5089 | 845.34
303.15 K, x1 = 0.613 | 852.44
303.15 K, x1 = 0.691 | 857.8
303.15 K, x1 = 0.7873 | 864.46
303.15 K, x1 = 0.8796 | 870.9
303.15 K, x1 = 0.9346 | 874.8
303.15 K, x1 = 1 | 879.51
313.15 K, x1 = 0.0802 | 809.21
313.15 K, x1 = 0.1168 | 811.47
313.15 K, x1 = 0.1965 | 816.46
313.15 K, x1 = 0.2939 | 822.62
313.15 K, x1 = 0.3995 | 829.39
313.15 K, x1 = 0.5141 | 836.8
313.15 K, x1 = 0.548 | 838.99
313.15 K, x1 = 0.5971 | 842.2
313.15 K, x1 = 0.6912 | 848.37
313.15 K, x1 = 0.7876 | 854.78
313.15 K, x1 = 0.9035 | 862.6
313.15 K, x1 = 0.9358 | 864.8
313.15 K, x1 = 1 | 869.32

Source: the NIST ThermoML archive (doi:10.1021/je034017j)
